Measurements as given in the RepoRT retention time repository.

Assay: Agilent ZORBAX 300 SB-C18, 150 × 1 mm, 3.5 µm; A: water + 0.01% heptafluorobutyric acid; B: acetonitrile + 0.01% heptafluorobutyric acid; gradient (min/%B) 0/0 100/90
Details: stereoisomer not certain

In order of falling LC retention time:
1. c1ccc(-n2c3c(c4ccccc42)CCC3)cc1  20.1 min
2. O=C(Nc1ccc(Nc2ccccc2)cc1)C(c1ccccc1)c1ccccc1  17.1 min
3. Cc1ccc(NC(=O)COc2ccc(-c3ccccc3)cc2)cc1  17.1 min
4. Cc1ccc2[nH]c(-c3ccccc3)cc2c1  16.8 min
5. c1ccc(Cn2ccc3ccccc32)cc1  16.8 min
6. COc1cccc(C2C3=C(CC(C)(C)CC3=O)OC3=C2C(=O)CC(C)(C)C3)c1OC  16.5 min
7. c1ccc(Sc2ccc3ccccc3n2)cc1  16.3 min
8. c1ccc(Oc2nnc(-c3ccccc3)c3ccccc23)cc1  15.8 min
9. CCCCCCCCCCC(N)=O  15.3 min
10. COc1ccc(-c2cc(=O)c3cc(C)cc(C)c3o2)cc1OC  15.2 min
11. c1ccc(-c2cc3cc4c(cc3[nH]2)OCO4)cc1  15.1 min
12. CCCCCCCCNCCCCCCCC  14.8 min
13. CC(C)(C)c1ccc(NC(=O)NCc2ccco2)cc1  14.5 min
14. COc1ccc(N2CC(C(=O)N3CCC(Cc4ccccc4)CC3)CC2=O)cc1 (stereo unspecified)  14.5 min
15. O=C(C=Cc1ccco1)c1ccccc1  14.5 min
16. O=C(C=Cc1ccccc1O)c1ccccc1O  14.5 min
17. CC1CCCCN1C(=S)NCc1ccccc1 (stereo unspecified)  14.3 min
18. CCN(CC)c1ccc(C=NNC(=O)C(C)Nc2ccc3ccccc3c2)cc1 (stereo unspecified)  14.3 min
19. CCCCC(CC)CNCC(CC)CCCC (stereo unspecified)  14.2 min
20. CCCNC(=O)Nc1ccc2c(c1)oc1ccccc12  14 min
21. CCc1ccc(C2Nc3ccccc3C(=O)N2c2ccc(N(C)C)cc2)cc1 (stereo unspecified)  13.7 min
22. COc1cccc(OC)c1OCc1nc2ccccc2nc1C  13.3 min
23. Cc1ccc2[nH]c3nc4ccccc4nc3c2c1  13.2 min
24. Cn1c2c(c(=O)n(C)c1=O)C1c3ccccc3OCC1C(C)(C)O2 (stereo unspecified)  13.2 min
25. CC1(C)CC(=O)c2cc3c(nc2C1)CC(C)(C)CC3=O  13.2 min
26. CCN(CC)CCOC(=O)C(c1ccccc1)C1CCCCC1 (stereo unspecified)  13 min
27. CCc1ccc2c(c1)c(C=O)c(C)n2C  12.9 min
28. CCCCC1CCC(C(=O)NCC2(N(C)C)CCCCC2)CC1 (stereo unspecified)  12.4 min
29. CCCCCCCCC(N)=O  12.4 min
30. O=C(C=Cc1cccc(O)c1)c1ccccc1O  12.2 min
31. COC(=O)Nc1nc2ccc(Sc3ccccc3)cc2[nH]1  12.2 min
32. COc1cccc2c1NC(CCc1ccccc1N)CC2 (stereo unspecified)  12.1 min
33. c1ccc2nc3c(nc2c1)[nH]c1ccccc13  12 min
34. Cc1ccc(C(=O)NC(=Cc2ccc(C(C)C)cc2)C(=O)NCc2cccnc2)cc1  11.9 min
35. CCn1c(-c2ccccc2)nn(CN2CCCC2)c1=S  11.8 min
36. C1=Nc2ccccc2C(c2ccccc2)C1c1ccc2ccccc2n1 (stereo unspecified)  11.8 min
37. CNCCCC12CCC(c3ccccc31)c1ccccc12  11.7 min
38. CCN(CC)C(=O)c1cc(NC(=O)c2ccc3c(c2)c(=O)n(C)c(=O)n3C)c(OC)c(OC)c1  11.7 min
39. COc1cccc(C=NNC(=O)c2ccccc2)c1OC  11.7 min
40. CCC1(c2ccccc2)CCC(=O)NC1=O (stereo unspecified)  11.5 min
41. O=C(Nc1ccc(Cc2ccncc2)cc1)c1ccc2ccccc2n1  11.4 min
42. COc1ccc(Cc2c(O)n(C)c(=O)n(C)c2=O)c(OC)c1OC  11.2 min
43. c1ccc(CN(c2ccccn2)c2ccccn2)cc1  11 min
44. CC(C)Cc1nc2ccccc2n1CC(C)C  10.9 min
45. CC(C)=NNc1nccc2ccccc12  10.7 min
46. COc1ccc(-n2c(O)c(Cc3ccc(OC)c(OC)c3)c(=O)[nH]c2=O)cc1  10.7 min
47. Cc1ccccc1C=NNC(N)=S  10.7 min
48. Cc1ccc2c(c1)C1CN(C)CCC1N2C(=O)CCCCCN1C(=O)c2ccccc2C1=O (stereo unspecified)  10.6 min
49. CC1(C)SC2C(NC(=O)Cc3ccccc3)C(=O)N2C1C(=O)O (stereo unspecified)  10.5 min
50. CC(NC(=O)c1ccc(CN2CCc3ccccc3C2)cc1)c1ccccc1 (stereo unspecified)  10.5 min
51. Cc1ccc(C(=O)c2ccc(C)c(N)c2)cc1N  10.3 min
52. O=C(CCN1C(=O)c2ccccc2C1=O)Nc1cccc(C(=O)O)c1  10.2 min
53. CCOC(=O)C1(c2ccccc2)CCN(CCc2ccc(N)cc2)CC1  10.1 min
54. CCn1c(C)cc(C=O)c1C  9.93 min
55. O=C1CC(N2CCN(Cc3ccccc3)CC2)C(=O)N1Cc1ccccc1 (stereo unspecified)  9.91 min
56. Cc1ccsc1CNC(C)c1ccccc1 (stereo unspecified)  9.76 min
57. Nc1ccc2ncn(Cc3ccccc3)c(=O)c2c1  9.74 min
58. O=C(NN=Cc1ccco1)c1ccccc1  9.65 min
59. COC(=O)C1C(O)CCC2CN3CCc4c([nH]c5ccccc45)C3CC21 (stereo unspecified)  9.64 min
60. CN(C)C(=O)Oc1cc(OC(=O)N(C)C)cc(C(O)CNC(C)(C)C)c1 (stereo unspecified)  9.59 min
61. COc1cccc(C2(O)CCCCC2CN(C)C)c1 (stereo unspecified)  9.38 min
62. CCOc1ccccc1CNC(N)=O  9.32 min
63. c1ccc(-c2cccc(-c3ccccn3)n2)nc1  9.29 min
64. CC(C)(C)NCC(O)COc1nsnc1N1CCOCC1 (stereo unspecified)  9.09 min
65. O=C1CCCCCN1CP(=O)(O)CCc1ccccc1  9 min
66. CC(C)c1ccc(N)cc1  9 min
67. C=CCC1NC(C)(C)Cc2ccccc21 (stereo unspecified)  9 min
68. Nc1ccccc1OCCOc1ccccc1N  8.96 min
69. c1ccc2nccnc2c1  8.94 min
70. CN(C)CCCNC(=O)Nc1cccc2ccccc12  8.85 min
71. CCN(CC)CCOc1ccccc1OC  8.83 min
72. CC(C)(N)Cc1ccccc1  8.82 min
73. Cc1cccc(NC(N)=S)n1  8.81 min
74. CC(=O)c1c(C(C)=O)c(C)n(C)c1C  8.65 min
75. Nc1c(S(=O)(=O)O)ccc2c1C(=O)c1ccccc1C2=O  8.56 min
76. CN1CCCN=C1C=Cc1cccs1  8.55 min
77. CC(C)C[NH2+]C(CC(=O)O)c1ccccc1 (stereo unspecified)  8.51 min
78. CC(=O)c1[nH]c2c(c1C)C(=O)CCC2  8.48 min
79. CN1C2CC(OC(=O)C(CO)c3ccccc3)CC1C1OC12 (stereo unspecified)  8.47 min
80. CNCCCc1cc(C)ccc1O  8.44 min
81. NC(=O)C1(N2CCCCC2)CCN(C(=O)C2CCCCC2)CC1  8.4 min
82. COc1ccc2c3c1OC1C(=O)CCC4(O)C(C2)N(C)CCC314 (stereo unspecified)  8.39 min
83. CC(=O)Nc1cccc(C(C)=O)c1  8.35 min
84. O=C(NN=Cc1ccncc1)c1ccccc1  8.3 min
85. CC1CCN(C(=O)C2CCCNC2)CC1 (stereo unspecified)  8.27 min
86. Cc1ccc(N(C)C)cc1  8.12 min
87. NCC1CCCCC1  8.08 min
88. O=C(O)CNC(=O)C1CCCCC1  8.07 min
89. CC1CC(C)(C)Nc2ccc(O)cc21 (stereo unspecified)  8.04 min
90. CC(NC(=O)c1ccccc1)C(=O)O (stereo unspecified)  8 min
91. c1ccc(N2CCNCC2)cc1  8 min
92. CN1CCC2(CC1)NC(=O)N(c1ccccc1)N2  7.95 min
93. NC(=O)NC1CCCCC1  7.79 min
94. O=C1CCCN1c1ccc(O)cc1  7.71 min
95. OCc1ccccc1CN1CCCC1  7.7 min
96. c1cc(N2CCCC2)ccn1  7.65 min
97. NCc1ccccc1  7.6 min
98. O=C(O)CCc1nn2c3ccccc3n(CC(=O)O)c2nc1=O  7.51 min
99. O=C(O)Cc1c(C(=O)O)[nH]c2cc(C(=O)O)ccc12  7.47 min
100. Cc1nc2c(ccc3[nH]c(C)nc32)[nH]1  7.32 min
101. CCCc1cc(C(N)=O)ccn1  7.11 min
102. c1cncc(CNCc2cccnc2)c1  7.11 min
103. Nc1ccc2nccnc2c1  7.1 min
104. CC1=NCC(=O)N1c1cccc(N)c1  7.1 min
105. C=CCNCC=C  7.07 min
106. CC1NC(=O)N(c2cccc(N)c2)C1=O (stereo unspecified)  7.05 min
107. CNCCCCCCNC  7.03 min
108. CN(C)c1ccncc1N  7.03 min
109. NCc1ccccc1C(=O)O  7 min
110. Cc1cc(C)[nH]n1  6.99 min
111. CCCNC(=O)N1CCCC(C(N)=O)C1 (stereo unspecified)  6.98 min
112. CCNCCN(CC)CC  6.96 min
113. NCC1CCCCN1 (stereo unspecified)  6.88 min
114. CCc1cccnc1  6.88 min
115. CC(N)CN(C)C (stereo unspecified)  6.58 min
116. CN1C(=O)C(CCC(N)=O)NC1=S (stereo unspecified)  6.53 min
117. NCC1CCNCC1  6.49 min
118. NCCCCCCO  6.25 min
119. O=C(O)CC(NCc1ccccc1)C(=O)O (stereo unspecified)  6.19 min
120. Cc1cc2[nH]c(=O)[nH]c2cc1N  6.14 min
121. CN1CCN(C)CC1  6.13 min
122. CC(=O)NC(Cc1ccc(O)cc1)C(N)=O (stereo unspecified)  6.07 min
123. CSC1=NCCN1  5.98 min
124. Nc1ccc(C(=O)O)cc1N  5.93 min
125. CNCC1COCCO1 (stereo unspecified)  5.78 min
126. Nc1cccnc1  5.54 min
127. Nc1ncc2[nH]cnc2n1  5.52 min
128. O=CN1CCN(C=O)CC1  3.45 min
129. Cc1ccnc(=O)[nH]1  2.97 min
130. CNCCO  2.61 min
131. O=C1CCCN1CP(=O)(O)CN1CCCC1=O  1.46 min
